Reference: patent US11001577B2, “Pesticidally active azetidine sulfones amide isoxazoline derivatives” (SYNGENTA PARTICIPATIONS AG, priority 2016, dated 2021)
Where two headings read alike, the source gives them in different places.

Experiments:
Type in all cases: in vivo
[1] = test system: Tetranychus urticae; assay: Tetranychus urticae (two-spotted spider mite) feeding/contact activity; conditions: 192 h, read-out: mortality on mixed population (mobile stages)
Protocol: (§1) Tetranychus urticae (Two-Spotted Spider Mite):Feeding/Contact Activity
(§2) Bean leaf discs on agar in 24-well microtiter plates were sprayed with aqueous test solutions prepared from 10,000 ppm DMSO stock solutions. After drying the leaf discs were infested with a mite population of mixed ages. The samples were assessed for mortality on mixed population (mobile stages) 8 days after infestation.

[2] = test system: Plutella xylostella; assay: Plutella xylostella (diamond back moth), artificial diet; conditions: 120 h, read-out: effect in at least one of the two categories (mortality or growth inhibition); for percent effect (mortality or growth inhibition) at 200 ppm: application rate 200 ppm, L2 larvae, 5 days after infestation
Protocol: Plutella xylostella (Diamond Back Moth)
(§3) 24-well microtiter plates with artificial diet were treated with aqueous test solutions prepared from 10,000 ppm DMSO stock solutions by pipetting. After drying, the plates were infested with L2 larvae (10 to 15 per well). The samples were assessed for mortality and growth inhibition in comparison to untreated samples 5 days after infestation.

[3] = test system: Myzus persicae; assay: Myzus persicae (green peach aphid) feeding/contact activity; conditions: 144 h
Protocol: Myzus persicae (Green Peach Aphid):Feeding/Contact Activity
(§4) Sunflower leaf discs were placed onto agar in a 24-well microtiter plate and sprayed with aqueous test solutions prepared from 10,000 ppm DMSO stock solutions. After drying, the leaf discs were infested with an aphid population of mixed ages. The samples were assessed for mortality 6 days after infestation.

[4] = test system: Euschistus heros; assay: Euschistus heros (neotropical brown stink bug), soybean leaves sprayed; conditions: 120 h, read-out: effect in at least one of the two categories (mortality or growth inhibition); for percent effect (mortality or growth inhibition) at 200 ppm: application rate 200 ppm, N2 nymphs, 5 days after infestation
Protocol: Euschistus heros (Neotropical Brown Stink Bug)
Soybean leaves on agar in 24-well microtiter plates were sprayed with aqueous test solutions prepared from 10,000 ppm DMSO stock solutions. After drying the leaves were infested with N2 nymphs. The samples were assessed for mortality and growth inhibition in comparison to untreated samples 5 days after infestation.

[5] = test system: Spodoptera littoralis; assay: Spodoptera littoralis (Egyptian cotton leaf worm), cotton leaf discs; conditions: foliar, 72 h; for percent control (mortality, anti-feedant effect or growth inhibition) at 200 ppm: application rate 200 ppm, L1 larvae, 3 days after infestation
Protocol: Spodoptera littoralis (Egyptian Cotton Leaf Worm)
Cotton leaf discs were placed onto agar in 24-well microtiter plates and sprayed with aqueous test solutions prepared from 10,000 ppm DMSO stock solutions. After drying the leaf discs were infested with five L1 larvae. The samples were assessed for mortality, anti-feeding effect, and growth inhibition in comparison to untreated samples 3 days after infestation. Control of Spodoptera littoralis by a test sample is given when at least one of the categories mortality, anti-feedant effect, and growth inhibition is higher than the untreated sample.

[6] = test system: Thrips tabaci; assay: Thrips tabaci (onion thrips) feeding/contact activity; conditions: 144 h
Protocol: (§5) Thrips tabaci (Onion Thrips) Feeding/Contact Activity
as §4, with “on” for “onto”, “in” for “in a”, “plates” for “plate”, “drying” for “drying,”, “a thrips” for “an aphid”

[7] = test system: Diabrotica balteata; assay: Diabrotica balteata (corn root worm), maize sprouts sprayed; conditions: 96 h, read-out: effect in at least one of the two categories (mortality or growth inhibition); for percent effect (mortality or growth inhibition) at 200 ppm: application rate 200 ppm, L2 larvae, 4 days after infestation
Protocol: Diabrotica balteata (Corn Root Worm)
as §3, with “Maize sprouts placed onto an agar layer in 24-well” for “24-well”, “plates” for “plates with artificial diet”, “spraying.” for “pipetting.”, “(6” for “(10”, “10” for “15”, “4” for “5”

[8] = test system: Thrips tabaci; assay: Comparative Example C4: Thrips tabaci feeding/contact activity; conditions: 6 days after infestation
Protocol: (§6) Compounds of the invention were tested alongside a number of compounds from WO 2013/026931.
as §5
(§7) Sunflower leaf discs were placed on agar in 24-well microtiter plates and sprayed with aqueous test solutions prepared from 10,000 ppm DMSO stock solutions. After drying the leaf discs were infested with a thrips population of mixed ages. The samples were assessed for mortality (%) 6 days after infestation at the various application rates.

[9] = test system: Spodoptera littoralis; assay: Comparative Example C2: Spodoptera littoralis feeding/contact activity; conditions: 3 days after infestation
Protocol: as §6
Spodoptera littoralis (Egyptian Cotton Leaf Worm):Feeding/Contact Activity
as §7, with “Cotton leaf” for “Sunflower leaf”, “placed onto” for “placed on”, “with five L1 larvae.” for “with a thrips population of mixed ages.”, “(%) 3” for “(%) 6”

[10] = test system: Tetranychus urticae; assay: Comparative Example C3: Tetranychus urticae feeding/contact activity; conditions: mobile stages, 8 days after infestation
Protocol: as §6, §1
as §2, with “mixed population (%) (mobile stages)” for “mixed population (mobile stages)”, “days after infestation at the various application rates.” for “days after infestation.”

[11] = test system: Plutella xylostella; assay: Comparative Example C1: Plutella xylostella feeding/contact activity
Protocol: as §6
Plutella xylostella (Diamond Back Moth):Feeding/Contact Activity
as §3, with “(%)” for “and growth inhibition in comparison to untreated samples”, “infestation at the various application rates” for “infestation.”

[12] = application rate 200 ppm, 8 days after infestation
[13] = application rate 200 ppm, mixed ages, 6 days after infestation, read-out: mortality

## Cc1cc(C2=NO[C@@](c3cc(Cl)cc(Cl)c3)(C(F)(F)F)C2)ccc1C(=O)NC1CN(S(=O)(=O)N(C)C)C1 [Compound A03, 4-[(5S)-5-(3,5-dichlorophenyl)-5-(trifluoromethyl)-4H-isoxazol-3-yl]-N-[1-(dimethylsulfamoyl)azetidin-3-yl]-2-methyl-benzamide]
[1]; [12]
  mortality at 200 ppm: ≥ 80%
[2]
  percent effect (mortality or growth inhibition) at 200 ppm: ≥ 80%
[3]; [13]
  mortality at 200 ppm: ≥ 80%
[4]
  percent effect (mortality or growth inhibition) at 200 ppm: ≥ 80%
[5]
  percent control (mortality, anti-feedant effect or growth inhibition) at 200 ppm: ≥ 80%
[6]; [13]
  mortality at 200 ppm: ≥ 80%
[7]
  percent effect (mortality or growth inhibition) at 200 ppm: ≥ 80%

## Cc1cc(C2=NO[C@@](c3cc(Cl)cc(Cl)c3)(C(F)(F)F)C2)ccc1C(=O)NC1CN(S(=O)(=O)C2CC2)C1 [Compound A04, N-(1-cyclopropylsulfonylazetidin-3-yl)-4-[(5S)-5-(3,5-dichlorophenyl)-5-(trifluoromethyl)-4H-isoxazol-3-yl]-2-methyl-benzamide]
[1]; [12]
  mortality at 200 ppm: ≥ 80%
[2]
  percent effect (mortality or growth inhibition) at 200 ppm: ≥ 80%
[4]
  percent effect (mortality or growth inhibition) at 200 ppm: ≥ 80%
[5]
  percent control (mortality, anti-feedant effect or growth inhibition) at 200 ppm: ≥ 80%
[7]
  percent effect (mortality or growth inhibition) at 200 ppm: ≥ 80%

## Cc1cc(C2=NOC(c3cc(Cl)cc(Cl)c3)(C(F)(F)F)C2)ccc1C(=O)NC1CN(S(=O)(=O)F)C1 (stereo not drawn) [Compound A06]
[8]; application rate 0.195 ppm
  Thrips tabaci mixed population average mortality (%): 0%
[8]; application rate 0.781 ppm
  Thrips tabaci mixed population average mortality (%): 100%
[8]; application rate 3.12 ppm
  Thrips tabaci mixed population average mortality (%): 100%
[8]; application rate 12.5 ppm
  Thrips tabaci mixed population average mortality (%): 100%
[8]; application rate 50 ppm
  Thrips tabaci mixed population average mortality (%): 100%
[8]; application rate 200 ppm
  Thrips tabaci mixed population average mortality (%): 100%
[9]; application rate 0.195 ppm
  Spodoptera littoralis larval average mortality (%): 100%
[9]; application rate 0.781 ppm
  Spodoptera littoralis larval average mortality (%): 100%
[9]; application rate 3.12 ppm
  Spodoptera littoralis larval average mortality (%): 100%
[9]; application rate 12.5 ppm
  Spodoptera littoralis larval average mortality (%): 100%
[9]; application rate 50 ppm
  Spodoptera littoralis larval average mortality (%): 100%
[9]; application rate 200 ppm
  Spodoptera littoralis larval average mortality (%): 100%
[10]; application rate 0.195 ppm
  Tetranychus urticae mixed population average mortality (%): 0%
[10]; application rate 0.781 ppm
  Tetranychus urticae mixed population average mortality (%): 100%
[10]; application rate 3.12 ppm
  Tetranychus urticae mixed population average mortality (%): 100%
[10]; application rate 12.5 ppm
  Tetranychus urticae mixed population average mortality (%): 100%
[10]; application rate 50 ppm
  Tetranychus urticae mixed population average mortality (%): 100%
[10]; application rate 200 ppm
  Tetranychus urticae mixed population average mortality (%): 100%
[11]; application rate 0.195 ppm
  Plutella xylostella larval average mortality (%): 80%
[11]; application rate 0.781 ppm
  Plutella xylostella larval average mortality (%): 100%
[11]; application rate 3.12 ppm
  Plutella xylostella larval average mortality (%): 100%
[11]; application rate 12.5 ppm
  Plutella xylostella larval average mortality (%): 100%
[11]; application rate 50 ppm
  Plutella xylostella larval average mortality (%): 100%
[11]; application rate 200 ppm
  Plutella xylostella larval average mortality (%): 100%

## Cc1cc(C2=NO[C@@](c3cc(Cl)cc(C(F)(F)F)c3)(C(F)(F)F)C2)ccc1C(=O)NC1CN(S(=O)(=O)F)C1 [Compound A10, 3-[[4-[(5S)-5-[3-chloro-5-(trifluoromethyl)phenyl]-5-(trifluoromethyl)-4H-isoxazol-3-yl]-2-methyl-benzoyl]amino]azetidine-1-sulfonyl fluoride]
[1]
  mortality at 200 ppm: ≥ 80%
[2]
  percent control (mortality or growth inhibition) at 200 ppm: ≥ 80%
[3]
  mortality at 200 ppm: ≥ 80%
[4]
  percent control (mortality or growth inhibition) at 200 ppm: ≥ 80%
[5]; read-out: control (mortality, anti-feedant effect, growth inhibition)
  mortality at 200 ppm: ≥ 80%
[6]
  mortality at 200 ppm: ≥ 80%
[7]
  percent control (mortality or growth inhibition) at 200 ppm: ≥ 80%

## Cc1cc(C2=NO[C@@](c3cc(Cl)c(F)c(Cl)c3)(C(F)(F)F)C2)ccc1C(=O)NC1CN(S(N)(=O)=O)C1 [Compound A12, 4-[(5S)-5-(3,5-dichloro-4-fluoro-phenyl)-5-(trifluoromethyl)-4H-isoxazol-3-yl]-2-methyl-N-(1-sulfamoylazetidin-3-yl)benzamide]
[1]; [12]
  mortality at 200 ppm: ≥ 80%
[2]
  percent effect (mortality or growth inhibition) at 200 ppm: ≥ 80%
[3]; [13]
  mortality at 200 ppm: ≥ 80%
[4]
  percent effect (mortality or growth inhibition) at 200 ppm: ≥ 80%
[5]
  percent control (mortality, anti-feedant effect or growth inhibition) at 200 ppm: ≥ 80%
[6]; [13]
  mortality at 200 ppm: ≥ 80%
[7]
  percent effect (mortality or growth inhibition) at 200 ppm: ≥ 80%

## Cc1cc(C2=NO[C@@](c3cc(Cl)c(F)c(Cl)c3)(C(F)(F)F)C2)ccc1C(=O)NC1CN(S(=O)(=O)N(CC(F)(F)F)CC(F)(F)F)C1 [Compound A13, N-[1-[bis(2,2,2-trifluoroethyl)sulfamoyl]azetidin-3-yl]-4-[(5S)-5-(3,5-dichloro-4-fluoro-phenyl)-5-(trifluoromethyl)-4H-isoxazol-3-yl]-2-methyl-benzamide]
[1]; [12]
  mortality at 200 ppm: ≥ 80%
[2]
  percent effect (mortality or growth inhibition) at 200 ppm: ≥ 80%
[3]; [13]
  mortality at 200 ppm: ≥ 80%
[5]
  percent control (mortality, anti-feedant effect or growth inhibition) at 200 ppm: ≥ 80%
[6]; [13]
  mortality at 200 ppm: ≥ 80%
[7]
  percent effect (mortality or growth inhibition) at 200 ppm: ≥ 80%

## Cc1cc(C2=NO[C@@](c3cc(Cl)c(F)c(Cl)c3)(C(F)(F)F)C2)ccc1C(=O)NC1CN(S(=O)(=O)NCC(F)(F)F)C1 [Compound A14, 4-[(5S)-5-(3,5-dichloro-4-fluoro-phenyl)-5-(trifluoromethyl)-4H-isoxazol-3-yl]-2-methyl-N-[1-(2,2,2-trifluoroethylsulfamoyl)azetidin-3-yl]benzamide]
[1]; [12]
  mortality at 200 ppm: ≥ 80%
[2]
  percent effect (mortality or growth inhibition) at 200 ppm: ≥ 80%
[3]; [13]
  mortality at 200 ppm: ≥ 80%
[4]
  percent effect (mortality or growth inhibition) at 200 ppm: ≥ 80%
[5]
  percent control (mortality, anti-feedant effect or growth inhibition) at 200 ppm: ≥ 80%
[6]; [13]
  mortality at 200 ppm: ≥ 80%
[7]
  percent effect (mortality or growth inhibition) at 200 ppm: ≥ 80%

## Cc1cc(C2=NO[C@@](c3cc(Cl)cc(C(F)(F)F)c3)(C(F)(F)F)C2)ccc1C(=O)NC1CN(S(=O)(=O)OCC(F)(F)F)C1 [Compound A18, 2,2,2-trifluoroethyl 3-[[4-[(5S)-5-[3-chloro-5-(trifluoromethyl)phenyl]-5-(trifluoromethyl)-4H-isoxazol-3-yl]-2-methyl-benzoyl]amino]azetidine-1-sulfonate]
[1]; [12]
  mortality at 200 ppm: ≥ 80%
[2]
  percent effect (mortality or growth inhibition) at 200 ppm: ≥ 80%
[4]
  percent effect (mortality or growth inhibition) at 200 ppm: ≥ 80%
[5]
  percent control (mortality, anti-feedant effect or growth inhibition) at 200 ppm: ≥ 80%
[6]; [13]
  mortality at 200 ppm: ≥ 80%
[7]
  percent effect (mortality or growth inhibition) at 200 ppm: ≥ 80%
